# In patent US9409866B2, “Pyridine-2-amides useful as CB2 agonists” (Hoffmann-La Roche Inc., priority 2012, dated 2016):
# Where two headings read alike, the source gives them in different places.
# Columns and labels:
# human CB1 receptors = human CB1 receptors (Homo sapiens (Human), UniProt P21554); assay: functional cAMP assay, CHO cells expressing human CB1; assay type: cell-based
# Procedure: (§1) CHO cells expressing human CB1 or CB2 receptors are seeded 17-24 hours prior to the experiment 50.000 cells per well in a black 96 well plate with flat clear bottom (Corning Costar #3904) in DMEM (Invitrogen No. 31331), 1×HT supplement, with 10% fetal calf serum and incubated at 5% CO2 and 37° C. in a humidified incubator. The growth medium was exchanged with Krebs Ringer Bicarbonate buffer with 1 mM IBMX and incubated at 30° C. for 30 min. Compounds were added to a final assay volume of 100 μl and incubated for 30 min at 30° C. Using the cAMP-Nano-TRF detection kit the assay (Roche Diagnostics) was stopped by the addition of 50 μl lysis reagent (Tris, NaCl, 1.5% Triton X100, 2.5% NP40, 10% NaN3) and 50 μl detection solutions (20 μM mAb Alexa700-cAMP 1:1, and 48 μM Ruthenium-2-AHA-cAMP) and shaken for 2 h at room temperature. The time-resolved energy transfer is measured by a TRF reader (Evotec Technologies GmbH), equipped with a ND:YAG laser as excitation source. The plate is measured twice with the excitation at 355 nm and at the emission with a delay of 100 ns and a gate of 100 ns, total exposure time 10 s at 730 (bandwidth 30 nm) or 645 nm (bandwidth 75 nm), respectively. The FRET signal is calculated as follows: FRET=T730-Alexa730-P(T645-B645) with P=Ru730-B730/Ru645-B645, where T730 is the test well measured at 730 nM, T645 is the test well measured at 645 nm, B730 and B645 are the buffer controls at 730 nm and 645 nm, respectively. cAMP content is determined from the function of a standard curve spanning from 10 μM to 0.13 nM cAMP.
# (§2) EC50 values were determined using Activity Base analysis (ID Business Solution, Limited). The EC50 values for a wide range of cannabinoid agonists generated from this assay were in agreement with the values published in the scientific literature.
# human CB2 receptors = human CB2 receptors (Homo sapiens (Human), UniProt P34972); assay: functional cAMP assay, CHO cells expressing human CB2; assay type: cell-based
# human CB2 receptors, sequence (P34972 whole entry): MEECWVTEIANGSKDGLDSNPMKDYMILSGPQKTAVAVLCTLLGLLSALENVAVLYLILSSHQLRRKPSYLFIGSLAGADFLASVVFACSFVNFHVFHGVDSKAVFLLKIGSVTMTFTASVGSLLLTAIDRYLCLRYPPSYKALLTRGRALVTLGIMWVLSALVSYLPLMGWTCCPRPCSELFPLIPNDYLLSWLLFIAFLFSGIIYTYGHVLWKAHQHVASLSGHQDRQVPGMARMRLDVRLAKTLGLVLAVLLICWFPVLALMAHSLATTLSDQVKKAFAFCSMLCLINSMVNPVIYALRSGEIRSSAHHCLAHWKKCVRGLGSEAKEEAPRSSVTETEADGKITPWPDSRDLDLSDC
# Procedure: as §1, §2
# [1] = Human CB1 EC50 (uM), functional cAMP assay, CHO cells expressing human CB1
# [2] = functional cAMP assay, CHO cells expressing human CB1; read-out: Human CB1 EC50
# [3] = read-out: Human CB1 EC50; functional cAMP assay, CHO cells expressing human CB1
# human CB1 receptors, sequence (P21554 whole entry): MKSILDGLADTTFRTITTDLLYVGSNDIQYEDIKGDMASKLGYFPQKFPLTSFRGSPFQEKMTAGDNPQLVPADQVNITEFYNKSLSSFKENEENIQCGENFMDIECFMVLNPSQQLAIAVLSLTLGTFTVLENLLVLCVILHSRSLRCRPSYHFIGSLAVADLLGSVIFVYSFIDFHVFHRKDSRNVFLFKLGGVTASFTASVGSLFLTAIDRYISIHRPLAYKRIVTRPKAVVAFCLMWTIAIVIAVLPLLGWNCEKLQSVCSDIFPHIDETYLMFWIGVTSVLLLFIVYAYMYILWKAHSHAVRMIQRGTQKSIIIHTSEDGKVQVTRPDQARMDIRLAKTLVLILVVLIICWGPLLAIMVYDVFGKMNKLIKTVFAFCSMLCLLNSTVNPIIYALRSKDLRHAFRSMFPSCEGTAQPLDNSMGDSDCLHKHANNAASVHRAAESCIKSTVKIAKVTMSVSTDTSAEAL
smiles,measurement,setting,value
"Cc1nc(C(C)(CS(C)(=O)=O)NC(=O)c2cc(OC(C)CF)c(C3CC3)cn2)no1 (single isomer, unassigned) [Example 295, 5-cyclopropyl-4-(1-fluoropropan-2-yloxy)-N-(2-(5-methyl-1,2,4-oxadiazol-3-yl)-1-(methylsulfonyl)propan-2-yl)picolinamide]",EC50,human CB1 receptors; [1],> 10 µM
same,EC50,human CB2 receptors; Human CB2 EC50 (uM),0.0024 µM
"CNC(=O)C(C)(NC(=O)c1cc(OCC(F)(F)F)c(C2CC2)cn1)c1noc(C)n1 (centres unmarked) [Example 149, 5-cyclopropyl-N-[1-(methylamino)-2-(5-methyl-1,2,4-oxadiazol-3-yl)-1-oxopropan-2-yl]-4-(2,2,2-trifluoroethoxy)pyridine-2-carboxamide]",EC50,human CB1 receptors; [2],> 10 µM
same,EC50,human CB2 receptors; read-out: Human CB2 EC50,0.0127 µM
"Cc1nc(C(C)(NC(=O)c2cc(OCC3CC3)c(C3CC3)cn2)C2CC2)no1 (centres unmarked) [Example 44, 5-Cyclopropyl-4-cyclopropylmethoxy-pyridine-2-carboxylic acid [1-cyclopropyl-1-(5-methyl-[1,2,4]oxadiazol-3-yl)-ethyl]-amide]",EC50,human CB1 receptors; [2],> 10 µM
same,EC50,human CB2 receptors; read-out: Human CB2 EC50,0.0007 µM
"Cc1nc(C(C)(CS(C)(=O)=O)NC(=O)c2cc(OCC(F)(F)F)c(C3CCC3)cn2)no1 (single isomer, unassigned) [Example 125, 5-cyclobutyl-N-[1-methyl-1-(5-methyl-1,2,4-oxadiazol-3-yl)-2-methylsulfonyl-ethyl]-4-(2,2,2-trifluoroethoxy)pyridine-2-carboxamide]",EC50,human CB1 receptors; [3],> 10 µM
same,EC50,human CB2 receptors; Human CB2 EC50 (uM),0.011 µM
"CC(C)(C)C(NC(=O)c1cc(OCC(F)(F)F)c(C2CC2)cn1)c1nccs1 (centres unmarked) [Example 50, 5-Cyclopropyl-4-(2,2,2-trifluoro-ethoxy)-pyridine-2-carboxylic acid (2,2-dimethyl-1-thiazol-2-yl-propyl)-amide]",EC50,human CB1 receptors; [2],> 10 µM
same,EC50,human CB2 receptors; read-out: Human CB2 EC50,0.0058 µM
"C[C@H](Oc1cc(C(=O)NC(c2noc(N)n2)C(C)(C)C)ncc1C1CC1)C(F)(F)F (stereo partly drawn) [Example 218, N-[1-(5-amino-1,2,4-oxadiazol-3-yl)-2,2-dimethylpropyl]-5-cyclopropyl-4-[(2S)-1,1,1-trifluoropropan-2-yl]oxypyridine-2-carboxamide]",EC50,human CB1 receptors; [2],> 10 µM
same,EC50,human CB2 receptors; read-out: Human CB2 EC50,0.0068 µM
"CNC(=O)[C@@H](NC(=O)c1cc(O[C@@H](C)C(F)(F)F)c(C2(F)COC2)cn1)C(C)(C)C [Example 172, N-[(2S)-3,3-dimethyl-1-(methylamino)-1-oxobutan-2-yl]-5-(3-fluorooxetan-3-yl)-4-[(2S)-1,1,1-trifluoropropan-2-yl]oxypyridine-2-carboxamide]",EC50,human CB1 receptors; [2],> 10 µM
same,EC50,human CB2 receptors; read-out: Human CB2 EC50,0.0329 µM
"CC(C)C[C@@H](CO)NC(=O)c1cc(OCC2CC2)c(Cl)cn1 [Example 7, 5-Chloro-4-cyclopropylmethoxy-pyridine-2-carboxylic acid ((S)-1-hydroxymethyl-3-methyl-butyl)-amide]",EC50,human CB1 receptors; [2],> 10 µM
same,EC50,human CB2 receptors; read-out: Human CB2 EC50,0.0523 µM
"CC(CC(N)=O)(NC(=O)c1cc(OCC(F)(F)F)c(C2CC2)cn1)C1CC1 (single isomer, unassigned) [Example 244, N-[4-amino-2-cyclopropyl-4-oxobutan-2-yl]-5-cyclopropyl-4-(2,2,2-trifluoroethoxy)pyridine-2-carboxamide]",EC50,human CB1 receptors; [3],> 10 µM
same,EC50,human CB2 receptors; Human CB2 EC50 (uM),0.0284 µM
"O=C(c1cc(OCC(F)(F)F)c(C2CC2)cn1)N1CC(F)(F)C1 [Example 76, [5-Cyclopropyl-4-(2,2,2-trifluoro-ethoxy)-pyridin-2-yl]-(3,3-difluoro-azetidin-1-yl)-methanone]",EC50,human CB1 receptors; [2],> 10 µM
same,EC50,human CB2 receptors; read-out: Human CB2 EC50,0.167 µM
"Cc1nc(C(C)(CC2CC2)NC(=O)c2cc(OCC(F)(F)F)c(C3CC3)cn2)no1 (single isomer, unassigned; enantiomer a) [Example 66, 5-Cyclopropyl-4-(2,2,2-trifluoro-ethoxy)-pyridine-2-carboxylic acid [2-cyclopropyl-1-methyl-1-(5-methyl-[1,2,4]oxadiazol-3-yl)-ethyl]-amide (enantiomer A)]",EC50,human CB1 receptors; [1],> 10 µM
same,EC50,human CB2 receptors; Human CB2 EC50 (uM),0.00595 µM
"CC(CS(C)(=O)=O)(NC(=O)c1cc(OCC(F)(F)F)c(C2CC2)cn1)C(N)=O (centres unmarked) [Example 134, N-(1-amino-2-methyl-3-methylsulfonyl-1-oxopropan-2-yl)-5-cyclopropyl-4-(2,2,2-trifluoroethoxy)pyridine-2-carboxamide]",EC50,human CB1 receptors; [2],> 10 µM
same,EC50,human CB2 receptors; read-out: Human CB2 EC50,0.888 µM
"Cc1nc([C@](C)(CC2CC2)NC(=O)c2cc(OCC(F)(F)F)c(N3CC(F)(F)C3)cn2)no1 (single isomer, unassigned) [Example 92, 5-(3,3-Difluoro-azetidin-1-yl)-4-(2,2,2-trifluoro-ethoxy)-pyridine-2-carboxylic acid [2-cyclopropyl-1-methyl-1-(5-methyl-[1,2,4]oxadiazol-3-yl)-ethyl]-amide]",EC50,human CB1 receptors; [1],> 10 µM
same,EC50,human CB2 receptors; Human CB2 EC50 (uM),0.0214 µM
"Cc1nc([C@@](C)(NC(=O)c2cc(OCC(F)(F)F)c(C3CC3)cn2)C2CC2)no1 (single isomer, unassigned; enantiomer a) [Example 61, 5-Cyclopropyl-4-(2,2,2-trifluoro-ethoxy)-pyridine-2-carboxylic acid [1-cyclopropyl-1-(5-methyl-[1,2,4]oxadiazol-3-yl)-ethyl]-amide (enantiomer A)]",EC50,human CB1 receptors; [1],> 10 µM
same,EC50,human CB2 receptors; Human CB2 EC50 (uM),0.0276 µM
"Cc1nc(C(C)(NC(=O)c2cc(OCC(F)(F)F)c(N3CCC(F)(F)C3)cn2)C2CC2)no1 (centres unmarked) [Example 79, 5-(3,3-Difluoro-pyrrolidin-1-yl)-4-(2,2,2-trifluoro-ethoxy)-pyridine-2-carboxylic acid [1-cyclopropyl-1-(5-methyl-[1,2,4]oxadiazol-3-yl)-ethyl]-amide]",EC50,human CB1 receptors; [2],0.19 µM
same,EC50,human CB2 receptors; read-out: Human CB2 EC50,0.0065 µM
"CC(C)[C@](C)(CO)NC(=O)c1cc(OCC2CCC2)c(Cl)cn1 [Example 12, 5-Chloro-4-cyclobutylmethoxy-pyridine-2-carboxylic acid ((R)-1-hydroxymethyl-1,2-dimethyl-propyl)-amide]",EC50,human CB1 receptors; [2],> 10 µM
same,EC50,human CB2 receptors; read-out: Human CB2 EC50,0.0092 µM
"CC(C)CC(C)(NC(=O)c1cc(OCC(F)(F)F)c(C2CC2)cn1)C(N)=O (centres unmarked) [Example 82, 5-Cyclopropyl-4-(2,2,2-trifluoro-ethoxy)-pyridine-2-carboxylic acid (1-carbamoyl-1,3-dimethyl-butyl)-amide]",EC50,human CB1 receptors; [2],> 10 µM
same,EC50,human CB2 receptors; read-out: Human CB2 EC50,0.0805 µM
"C[C@H](Oc1cc(C(=O)NC2(CC(N)=O)CS(=O)(=O)C2)ncc1C1(F)CCC1)C(F)(F)F [Example 305, N-[3-(2-amino-2-oxoethyl)-1,1-dioxothietan-3-yl]-5-(1-fluorocyclobutyl)-4-[(2S)-1,1,1-trifluoropropan-2-yl]oxypyridine-2-carboxamide]",EC50,human CB1 receptors; [2],> 10 µM
same,EC50,human CB2 receptors; read-out: Human CB2 EC50,0.0051 µM
"Cc1nc(C(NC(=O)c2cc(O[C@@H](C)C(F)(F)F)c(C3CC3)cn2)C(C)(C)C)no1 (stereo partly drawn) [Example 220, 5-cyclopropyl-N-[2,2-dimethyl-1-(5-methyl-1,2,4-oxadiazol-3-yl)propyl]-4-[(2S)-1,1,1-trifluoropropan-2-yl]oxypyridine-2-carboxamide]",EC50,human CB1 receptors; [2],> 10 µM
same,EC50,human CB2 receptors; read-out: Human CB2 EC50,0.0027 µM
"Cc1nc(C(C)(NC(=O)c2cc(O[C@@H](C)C(F)(F)F)c(C3CC3)cn2)C2CC2)no1 (single isomer, unassigned; epimer a) [Example 68]",EC50,human CB1 receptors; [2],> 10 µM
same,EC50,human CB2 receptors; read-out: Human CB2 EC50,0.00395 µM
"C[C@H](Oc1cc(C(=O)NC(C(N)=O)C2(C)COC2)ncc1C1CC1)C(F)(F)F (stereo partly drawn) [Example 251, N-[2-amino-1-(3-methyloxetan-3-yl)-2-oxoethyl]-5-cyclopropyl-4-[(2S)-1,1,1-trifluoropropan-2-yl]oxypyridine-2-carboxamide]",EC50,human CB1 receptors; [2],> 10 µM
same,EC50,human CB2 receptors; read-out: Human CB2 EC50,0.0089 µM
"CC(CF)Oc1cc(C(=O)NC(C)(CC(N)=O)C2CC2)ncc1C1CC1 (single isomer, unassigned) [Example 301, N-(4-amino-2-cyclopropyl-4-oxobutan-2-yl)-5-cyclopropyl-4-(1-fluoropropan-2-yloxy)picolinamide]",EC50,human CB1 receptors; [1],> 10 µM
same,EC50,human CB2 receptors; Human CB2 EC50 (uM),0.0304 µM
"Cc1nc(C(C)(CS(C)(=O)=O)NC(=O)c2cc(OCC(F)(F)F)c(Cl)cn2)no1 (centres unmarked) [Example 80, 5-Chloro-4-(2,2,2-trifluoro-ethoxy)-pyridine-2-carboxylic acid [2-methanesulfonyl-1-methyl-1-(5-methyl-[1,2,4]oxadiazol-3-yl)-ethyl]-amide]",EC50,human CB1 receptors; [2],> 10 µM
same,EC50,human CB2 receptors; read-out: Human CB2 EC50,0.969 µM
"Cn1nnnc1C(NC(=O)c1cc(OCC(F)(F)F)c(C2CC2)cn1)C(C)(C)C (centres unmarked) [Example 164, 5-cyclopropyl-N-[2,2-dimethyl-1-(1-methyltetrazol-5-yl)propyl]-4-(2,2,2-trifluoroethoxy)pyridine-2-carboxamide]",EC50,human CB2 receptors; Human CB2 EC50 (uM),0.0168 µM
